Key:
[1] = tested on: E. coli AB1157 ΔacrF; test: Time-kill assay (CIP and/or EPI); format: cell-based, Escherichia coli; conditions: 25 μM MBX2319 + 1×MIC CIP, 2 hours
Procedure: (§1) Panel (C): Bactericidal activity of CIP alone, 25 μM MBX2319 alone, or 25 μM MBX2319 combined with a bacteriostatic concentration of CIP against E. coli AB1157 and isogenic efflux defective mutants after 2 hours exposure. […] Panel (D): Bactericidal activity of CIP alone, 25 μM MBX2319 alone, 25 μM PAβN alone, and a bacteriostatic concentration of CIP combined with 25 μM MBX2319 or combined with 25 μM PAβN against the following organisms: a) E. coli AB1157, b) E. coli ATCC 25922, c) K. pneumoniae ATCC 700603, d) S. flexneri ATCC 12022, e) S. enterica ATCC 14028, f) E. aerogenes ATCC 13048.
(§2) • Strains and Reagents. The following strains were obtained from the Keio collection (Baba, et al.: Construction of Escherichia coli K-12 in-frame, single-gene knockout mutants: the Keio collection. In Mol Syst Biol, vol. 2, pp. 2006 0008, (2006)): JW0451 (ΔacrB::kan), JW5503 (ΔtolC::kan), JW3234 (ΔacrF::kan), JW2661 (ΔemrB::kan), JW0863 (ΔmacB::kan). The deletion mutations in each of these strains were transferred to AB1157 using P1 phage transduction (see Table 1). The construction of the E. coli cell-based reporter strain (SOS-XXX) that was used for high throughput screening is described in detail in the supplementary information. […] Irgasan was a generous gift from Ciba Speciality Chemicals, Inc. (High Point, N.C.). Hoechst 33342 (H33342) was purchased from Molecular Probes (Eugene, Oreg.). […] Luria Broth (Miller) and agar were purchased as prepared dehydrated media from Becton Dickenson (Franklin Lakes, N.J.). The compound libraries used in high-throughput screens were purchased from Chembridge (San Diego, Calif.), ChemDiv (San Diego, Calif.), and TimTec (Newark, Del.). MBX2319 was synthesized by Microbiotix, Inc. • Antibacterial Activity Assays. The minimal inhibitory concentration (MIC) of antibacterial agents and biocides were determined using the microbroth dilution method essentially as described in the CLSI protocol M7-A7 (CLSI: Method for dilution antimicrobial susceptibility testing for bacteria that grow aerobically; Approved standard-document M7-A7. In Clinical and Laboratory Standards Institute document M7-A7, Clinical and Laboratory Standards Institute, Wayne, Pa., (2006)), with the following exceptions. LB media was used instead of MHB. […] The final concentration of DMSO in each assay was 2%. […] MIC assays were performed in triplicate and the geometric mean was calculated. […] Viability was monitored over 2-4 hours by making serial dilutions in saline and spotting 5 μl of each dilution onto the surface of an LB agar plate in triplicate. Colonies were counted after the plates were incubated at 37° C. for 16-18 hr, colony forming units (CFU) per ml were calculated, and the average and standard deviation for the three replicates was determined. […]

[2] = tested on: E. coli AB1157; test: Time-kill assay (CIP and/or EPI); format: cell-based, Escherichia coli
Procedure: as §1, §2

CC1(C)Cc2c(C#N)c(SCCc3ccccc3)nc(N3CCOCC3)c2CO1 [MBX2319]
potentiation of the bactericidal activity of CIP [1]: potentiated the bactericidal activity of CIP | decreased viability (CFU/ml) as compared to 1×MIC CIP alone ([2]; 3.13 μM MBX2319 + […] CIP, 4 hr exposure): 10,000 fold | effect on bactericidal activity of […] CIP (1×MIC) ([2]; MBX2319 up to 3.13 μM, dose-dependent, PAβN as high as 100 μM): increased the bactericidal activity | effect on growth, compound alone ([2]; alone at concentrations up to 50 μM): did not affect growth
